From patent publication US20180319762A1, “5-deoxy-irilin B Having Angiotensin-I-converting enzyme Inhibition Activity derived from Salicornia SPP. and Composition Containing the Same” (PHYTO CORPORATION, priority 2015, published 2018) come the findings set out here.

Each structure is given as a SMILES string.

The IC50 is the concentration that gives 50% inhibition. A low value points to higher potency. The term inhibition denotes the drop in the measured response relative to a control, in per cent.

For data set [1], the target named is T1, angiotensin-I-converting enzyme (ACE) (Oryctolagus cuniculus, UniProt P12822).
T1 construct: tissue Sigma; host or cells: rabbit lung (acetone powder, borate buffer extract supernatant)
T1 sequence (P12822 34-1310): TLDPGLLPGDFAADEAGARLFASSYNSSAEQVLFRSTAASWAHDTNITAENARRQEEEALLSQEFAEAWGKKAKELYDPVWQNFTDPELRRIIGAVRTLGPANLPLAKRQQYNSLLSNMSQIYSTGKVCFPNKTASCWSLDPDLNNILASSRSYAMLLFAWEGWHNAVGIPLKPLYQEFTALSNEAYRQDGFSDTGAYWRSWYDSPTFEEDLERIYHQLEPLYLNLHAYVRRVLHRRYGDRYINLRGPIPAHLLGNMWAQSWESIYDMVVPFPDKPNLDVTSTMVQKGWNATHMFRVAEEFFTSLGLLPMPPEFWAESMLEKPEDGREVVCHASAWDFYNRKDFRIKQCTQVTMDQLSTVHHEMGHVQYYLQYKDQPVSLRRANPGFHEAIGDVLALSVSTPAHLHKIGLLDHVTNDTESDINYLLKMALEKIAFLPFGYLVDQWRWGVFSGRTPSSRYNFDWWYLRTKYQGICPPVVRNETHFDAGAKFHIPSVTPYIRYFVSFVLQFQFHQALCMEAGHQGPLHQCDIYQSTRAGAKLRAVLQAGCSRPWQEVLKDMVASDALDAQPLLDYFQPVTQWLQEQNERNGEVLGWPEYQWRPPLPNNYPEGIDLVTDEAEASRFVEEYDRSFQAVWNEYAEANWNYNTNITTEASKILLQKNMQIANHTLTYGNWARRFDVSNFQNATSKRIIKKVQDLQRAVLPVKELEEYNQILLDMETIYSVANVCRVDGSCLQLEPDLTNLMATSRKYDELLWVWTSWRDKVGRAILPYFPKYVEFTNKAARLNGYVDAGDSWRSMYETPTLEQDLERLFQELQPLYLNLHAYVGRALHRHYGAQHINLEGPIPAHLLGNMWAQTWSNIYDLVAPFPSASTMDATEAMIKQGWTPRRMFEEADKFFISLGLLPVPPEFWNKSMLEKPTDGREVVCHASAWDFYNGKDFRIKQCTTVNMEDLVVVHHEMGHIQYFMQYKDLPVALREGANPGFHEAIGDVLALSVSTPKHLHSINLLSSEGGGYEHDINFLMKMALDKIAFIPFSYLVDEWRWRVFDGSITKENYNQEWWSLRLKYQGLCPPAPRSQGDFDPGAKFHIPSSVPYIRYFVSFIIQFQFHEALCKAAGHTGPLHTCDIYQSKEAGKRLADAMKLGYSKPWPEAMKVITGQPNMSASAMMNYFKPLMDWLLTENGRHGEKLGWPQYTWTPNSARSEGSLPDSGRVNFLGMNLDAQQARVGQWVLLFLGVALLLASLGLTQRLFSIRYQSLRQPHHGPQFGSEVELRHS
The experiment in a line: ACE (Angiotensin I-Converting Enzyme) inhibition activity, Hip-His-Leu substrate, absorbance at 228 nm. It counts as biochemical, rabbit. The protocol: As shown in the results of Table 8, the hydrolyzed Salicornia salty sauces had very high functional polyphenol and flavonoid contents compared to the non-hydrolyzed salty sauce. Thus, as an indicator for antihypertensive activity, angiotensin-I-converting enzyme (ACE) inhibition activity was evaluated. As the test sample, each salty sauce, adjusted to a salt content of 14%, was added at a concentration of 1 to 5 μL/mL to the reaction solution, and then measured.
Angiotensin-II, produced by ACE, promotes an increase in blood pressure and secretion of antidiuretic hormone aldosterone, and suppresses the emission of water and sodium to thus increase blood circulation, thus causing hypertension. […] Specifically, 1 g of a rabbit lung acetone powder (Sigma Col) in 50 μL of the sample was mixed with 25 μL (2.5 unit) of an ACE supernatant dissolved in a 0.1 M sodium borate buffer containing 10 mL of 0.3 M NaCl, 50 μL of a 0.1 M sodium borate buffer (pH 8.3) containing 0.3 M NaCl, and 25 μL of a sample solution at various concentrations (0.25, 0.5 and 1.0 mg/mL), and then preincubated at 37° C. for 10 min. Further, 50 μL of a Hip-His-Leu substrate solution was added, and the resulting mixture was allowed to react at 37° C. for 30 min, after which the reaction was stopped by the addition of 100 μL of 1 N HCl. 1 mL of ethyl acetate was added, and the resulting reaction mixture was agitated in a vortex for 1 min and centrifuged at 3,000 g for 15 min, after which 0.8 mL of the separated ethyl acetate supernatant (extract) was recovered. The supernatant was warmed in a hood and thus completely volatilized, and was then dissolved in 1 mL of a sodium borate buffer under the same conditions, after which absorbance at 228 nm was measured and ACE inhibition activity was calculated.
During purification, the organic solvent fractions (at concentrations of 10, 25, 50 μg/mL) were measured for ACE inhibition activity in the same manner as in Example 3-2.

A short description of data set [2]: Solubility (physical and chemical properties of Compound A). It is filed as physicochemical.

In data set [1], `O=c1cc(-c2ccc(O)c(O)c2)oc2cc(O)cc(O)c12` [Luteolin, reference compound] gave a 50% inhibitory concentration (IC50) of 93.3 µM.
With `COc1cc2c(=O)c(-c3ccccc3O)coc2cc1O` [EDS-LH-7b, 7-hydroxy-3-(2′-hydroxyphenyl)-6-methoxy-4H-1-benzopyran-4-one], the IC50 in data set [1] was 15.8 µM. Further, the inhibition at 10 µg/mL in data set [1] (at a concentration of 10 μg/mL) is ≥ 95%. Further, in data set [1] (compared with the other sauces or with the other fractions of the same purification step), the “ACE inhibition activity, rank among compared samples/fractions” value was “the greatest”. Further, the Solubility result in data set [2] (in methanol, ethanol, ethyl acetate, and chloroform) is “Soluble”; in data set [2] (in water), “insoluble”.
